# Experimental data published in patent US20110263647A1 (AMGEN INC., priority 2009, published 2011).
# Structures can show the parent of a compound that is named as a salt.
# Experiments:
# CYP2D6 = molecular target: T1, CYP2D6 (Homo sapiens, UniProt P10635); assay: CYP2D6 inhibition assay (bufuralol, pooled human liver microsomes); format: in vitro ADME; details: pH 7.4, probe bufuralol (5 μM), test compound 3 μM, human liver microsomes 0.25 mg/mL
# T1 construct: tissue XenoTech LLC Lot 0610351; host or cells: pooled human liver microsomes
# T1 sequence (P10635 whole entry): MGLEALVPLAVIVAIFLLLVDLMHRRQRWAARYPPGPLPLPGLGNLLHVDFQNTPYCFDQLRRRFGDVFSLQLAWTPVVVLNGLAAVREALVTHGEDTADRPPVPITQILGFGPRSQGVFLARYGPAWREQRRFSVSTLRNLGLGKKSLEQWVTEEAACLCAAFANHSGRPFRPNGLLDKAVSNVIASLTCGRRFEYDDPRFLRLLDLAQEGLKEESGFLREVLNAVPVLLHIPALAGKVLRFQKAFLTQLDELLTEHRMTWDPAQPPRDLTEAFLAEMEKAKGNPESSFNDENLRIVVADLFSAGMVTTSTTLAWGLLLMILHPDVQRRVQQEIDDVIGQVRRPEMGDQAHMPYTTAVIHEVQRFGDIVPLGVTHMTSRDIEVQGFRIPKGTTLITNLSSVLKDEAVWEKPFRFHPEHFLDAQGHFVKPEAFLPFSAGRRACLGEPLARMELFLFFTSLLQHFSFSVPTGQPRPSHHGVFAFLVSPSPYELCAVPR
# Protocol: (§1) Midazolam was obtained from BD Gentest (Waltham, Mass.); 1′ hydroxy midazolam and 1-hydroxy bufuralol maleate were obtained from Ultrafine Chemicals (Manchester, UK); bufuralol HCl, ketoconazole, quinidine, potassium phosphate, and NADPH were obtained from Sigma (St. Louis, Mo.). Test compounds were prepared at 10 mM concentration in DMSO (Mallinckrodt Inc., St. Louis, Mo.). NADPH was prepared at 10 mM concentration in a pH 7.4 buffer (8.3 mg/mL 66.7 mM potassium phosphate). Midazolam was prepared at 1 mM concentration in deionized water (Amgen, Thousand Oaks, Calif.), and bufuralol was prepared at 2 mM concentration in deionized water. A stock solution of ketoconazole was prepared at 37 mM concentration in DMSO, and quinidine was prepared at 500 uM concentration in DMSO. Formic acid in acetonitrile (0.05%, ACN) was used as a quench solution (Sigma-Aldrich, St. Louis, Mo.). All solvents used for LC/MS were of chromatographic grade. Pooled human liver microsomes (Lot 0610351) were purchased from XenoTech LLC, (Lenexa, Kans.).
# Pooled human liver microsomes (0.25 mg/mL) were incubated at 37° C. in a phosphate buffer (66.7 mM potassium phosphate at pH 7.4) with the selective CYP2D6 substrate bufuralol at a concentration of 5 μM in the presence and absence of test compound (3 μM). The reaction was started with the addition of NADPH (1 mM final concentration). The reaction was stopped after 10 minutes by addition of formic acid in acetonitrile. 1-Hydroxybufuralol metabolite formation was measured by an HPLC MS detection method (mobile phases for HPLC were: 0.1% AcOH in 5% MeOH, and 0.1% AcOH in 95% MeOH; the HPLC column was an Onyx Monolithic C18 CHO-7645 HPLC column from Phenomenex; Shimadzu LC-10ADVP equipped Biomek FX Liquid handling system and CTC Analytics PAL well auto-sampler; Mass spectrometer: Applied Biosystems API 3000 using Analyst 1.4.1 software). Inhibition was determined by the ratio of the amount of 1-hydroxy bufuralol metabolite formed metabolite in the presence of test compound to the amount of metabolite in the absence of test compound.
# CYP3A4 = molecular target: T2, CYP3A4 (Homo sapiens, UniProt P08684); assay: CYP3A4 inhibition assay (midazolam, pooled human liver microsomes); format: in vitro ADME; details: pH 7.4, probe midazolam (2.5 μM), test compound 3 μM, human liver microsomes 0.1 mg/mL
# T2 construct: tissue XenoTech LLC Lot 0610351; host or cells: pooled human liver microsomes
# T2 sequence (P08684 whole entry): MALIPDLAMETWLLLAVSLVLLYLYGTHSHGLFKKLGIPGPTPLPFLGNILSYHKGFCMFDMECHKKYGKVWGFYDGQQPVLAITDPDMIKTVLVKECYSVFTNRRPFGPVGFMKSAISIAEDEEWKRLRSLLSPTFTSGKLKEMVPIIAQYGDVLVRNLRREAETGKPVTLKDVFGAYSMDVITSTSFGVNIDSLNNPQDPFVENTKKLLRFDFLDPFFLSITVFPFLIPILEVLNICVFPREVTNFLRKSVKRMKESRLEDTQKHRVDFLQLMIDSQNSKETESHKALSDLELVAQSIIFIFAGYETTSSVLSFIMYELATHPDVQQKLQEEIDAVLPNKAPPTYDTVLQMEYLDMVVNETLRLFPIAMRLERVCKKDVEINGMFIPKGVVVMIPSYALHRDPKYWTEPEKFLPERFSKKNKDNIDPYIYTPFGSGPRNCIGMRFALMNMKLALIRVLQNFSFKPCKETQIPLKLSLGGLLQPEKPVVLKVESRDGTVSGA
# Protocol: as §1
# Pooled human liver microsomes (0.1 mg/mL) were incubated at 37° C. in a phosphate buffer (66.7 mM potassium phosphate at pH 7.4) with the selective CYP3A substrate midazolam at a concentration of 2.5 μM in the presence and absence of test compound (3 μM). The reaction was started with the addition of NADPH (1 mM final concentration). The reaction was stopped after 10 minutes by addition of formic acid in acetonitrile. 1′-Hydroxymidazolam metabolite formation was measured by an HPLC MS detection method (mobile phases were 0.1% AcOH in 5% MeOH, and 0.1% AcOH in 95% MeOH; the HPLC column was an Onyx Monolithic C18 CHO-7645 HPLC column obtained from Phenomenex; Shimadzu LC-10ADVP equipped Biomek FX Liquid handling system and CTC Analytics PAL well auto-sampler; Mass spectrometer: Applied Biosystems API 3000 using Analyst 1.4.1 software). Inhibition was determined by the ratio of the amount of 1′-hydroxy midazolam metabolite formed in the presence of test compound to the amount of metabolite found in the absence of test compound Inhibition was measured relative to the rate of formation of 1′-hydroxy midazolam incubated at 2.5 μM without test compound.
SMILES,"inhibition at 10 min, 3 μM (CYP2D6) [%]","inhibition at 10 min, 3 μM (CYP3A4) [%]"
"N[C@H](CNc1ncc(-c2ccc3cnc(F)cc3c2)s1)[C@@H](CO)c1ccc(C(F)(F)F)cc1 [Example 33, (2S,3S)-3-Amino-4-(5-(3-fluoroisoquinolin-6-yl)thiazol-2-ylamino)-2-(4-(trifluoromethyl)phenyl)butan-1-ol]",49,48
CC(F)(F)c1ccc(C[C@H](N)CCc2ncc(-c3ccc4cnc(F)cc4c3)s2)cn1 [Example 50],71,21
"N[C@H](CNc1ncc(-c2ccc3cnc(F)cc3c2)s1)CN1CCC(C(F)(F)F)CC1 [Example 25, N—((R)-2-Amino-3-(4-(trifluoromethyl)piperidin-1-yl)propyl)-5-(3-fluoroisoquinolin-6-yl)thiazol-2-amine]",51,48
"CC(F)(F)c1ccc([C@H](O)[C@H](N)CNc2ncc(-c3ccc4cnc(F)cc4c3)s2)cc1 [Example 38, (1S,2R)-2-Amino-1-(4-(1,1-difluoroethyl)phenyl)-3-((5-(3-fluoro-6-isoquinolinyl)-1,3-thiazol-2-yl)amino)-1-propanol trifluoroacetate]",44,9
"N[C@H](CNc1ncc(-c2ccc3cnc(F)cc3c2)s1)Cc1ccc(C(F)(F)F)cc1 [Example 4, N—((S)-2-Amino-3-(4-(trifluoromethyl)phenyl)propyl)-5-(3-fluoroisoquinolin-6-yl)thiazol-2-amine trifluoroacetate]",44,0
"N[C@H](CNc1ncc(-c2ccc3cnc(F)cc3c2)s1)Cc1ccc(Cl)c(F)c1 [Example 44, (2S)-3-(4-Chloro-3-fluorophenyl)-N-1-(5-(3-fluoro-6-isoquinoliny)-1,3-thiazol-2-yl)-1-2-propanediamine]",42,48
"N[C@H](CCc1ncc(-c2ccc3cnc(F)cc3c2)s1)[C@@H](O)c1ccc(C(F)(F)F)cc1 [Example 36, (1S,2R)-2-Amino-4-(5-(3-fluoroisoquinolin-6-yl)thiazol-2-yl)-1-(4-(trifluoromethyl)phenyl)butan-1-ol trifluoroacetate]",27,0
"CC(F)(F)c1ccc(C[C@H](N)CNc2ncc(-c3ccc4cnc(F)cc4c3)s2)cn1 [Example 7, N—((S)-2-Amino-3-(6-(1,1-difluoroethyl)pyridin-3-yl)propyl)-5-(3-fluoroisoquinolin-6-yl)thiazol-2-amine]",23,13
"C[C@@H](c1ccc(C(F)(F)F)cc1)[C@H](N)CNc1ncc(-c2ccc3cnc(F)cc3c2)s1 [Example 10, N-((2S,3S)-2-Amino-3-(4-(trifluoromethyl)phenyl)butyl)-5-(3-fluoroisoquinolin-6-yl)thiazol-2-amine]",19,0
"N[C@H](CNc1ncc(-c2ccc3cnc(F)cc3c2)s1)Cc1ccc(C(F)(F)F)nc1 [Example 2, (2S)—N-(5-(3-Fluoro-6-isoquinolinyl)-1,3-thiazol-2-yl)-3-(6-(trifluoromethyl)-3-pyridinyl)-1,2-propanediamine]",53,75
"COCc1nc(NC[C@@H](N)Cc2ccc(C(F)(F)F)nc2)sc1-c1ccc2cnc(F)cc2c1 [Example 18, N—((S)-2-Amino-3-(6-(trifluoromethyl)pyridin-3-yl)propyl)-5-(3-fluoroisoquinolin-6-yl)-4-(methoxymethyl)thiazol-2-amine]",75,0
